# Results taken from article PMC9276671, “A first-in-human Phase I dose-escalation trial of the novel therapeutic peptide, ALM201, demonstrates a favourable safety profile in unselected patients with ovarian cancer and other advanced solid tumours” (British Journal of Cancer, 2022).
# Like-named read-outs stand apart in the source and are kept apart here. No end group written: not given here.
# Key:
# [1] = system: tubulin; set-up: method as in Investigator brochure (IB); conditions: ref Investigator brochure (IB), read-out: Tubulin polymerisation IC50, cited from earlier work
# [2] = system: angiogenesis and cell migration and invasion; conditions: cited from earlier work
# Excerpt: Early investigations into the mechanism of action for ALM201 reported that the peptide is internalised into CD44-expressing cells and targets microtubules inhibiting migration and invasion in cancer and endothelial cells, similar to vascular disrupting agents. However, it was unclear if this was the principal mechanism of inhibiting angiogenesis or if other factors, such as inhibiting endothelial cell migration and inva ...
# [3] = system: advanced solid tumours; assay: Tumour response by RECIST 1.1; format: in vivo, human
# Method: Tumour assessment by imaging (CT scan or MRI scan as appropriate for tumour type) was assessed in all patients at initial screening and after every two cycles of treatment (i.e., every 6 weeks) during cycles 1–8 (i.e., first 24 weeks), and then after every four cycles of treatment (i.e., every 12 weeks) from cycle nine onwards. Scans were reported according to RECIST version 1.1.
# [4] = system: xenograft; conditions: rat xenograft model, 3 mg/kg; ref Investigator brochure (IB); cited from earlier work
# Method: page 41: Almac Discovery Confidential 1.5 Rationale for Dose Selection Based on GLP, 28-day, repeat dose toxicology studies in the dog and rat, the NOAEL for ALM201 was not defined at the maximum dose evaluated of 50 mg/kgxiv. Therefore, based on standard allometric scaling based on the FDA guidelines (FDA, 2005 ), it is predicted that a human equivalent dose (HED) range of 8–28 mg/kg could be given without any drug-related adverse effects. Assuming a starting dose calculation based on a 10-fold safety margin in the most conservative model (the rat); the starting dose would be 0.8 mg/kg. Due t ...
# [5] = system: HT29, DU145 and MDA-231 xenografts; conditions: cited from earlier work
# [6] = system: ovarian patient-derived xenograft models; conditions: cited from earlier work
sequence,measurement,setting,value
IRQQPRDPPTETLELEVSPDPAS [ALM201],IC50,[1]; protocol Table 2,0.1 nM
same,IC50,[1]; protocol Table 3,0.11 nM
same,"Activity in standard in vitro and ex vivo assays of angiogenesis, cell migration and invasion",[2],low picomolar activity
same,Stable disease / disease control rate,"[3]; 7/20 patients, stable disease for up to four cycles",35%
same,Disease progression,[3]; 12 of 20 patients,60%
same,Partial or complete responses,[3]; all patients,No partial or complete responses
same,Patients with SD until the end of cycle 4,[3]; in vivo,Three
same,Anti-tumour activity,[4],significant anti-tumour
same,Tumour size relative to vehicle controls,"[5]; 0.3 mg/kg and 3.0 mg/kg daily or three times weekly, HT29, DU145 and MDA-231, ref Investigator brochure (IB)",significant inhibition of tumour size
same,Anti-tumour activity in vivo,"[5]; single agent or in combination with chemotherapeutic agents, tumour xenograft models, ref Almac Discovery, manuscript in preparation",significant anti-tumour activity
same,Tumour growth inhibition,[6],> 60%
